Results from ChEMBL document CHEMBL4251578, “Design, synthesis and biological evaluation of novel 2-aminobenzamides containing dithiocarbamate moiety as histone deacetylase inhibitors and potent antitumor agents” (Eur J Med Chem, 2018).

Experiments:
[1] = test system: SMMC-7721; assay: Cell cycle arrest in human SMMC7721 cells assessed as accumulation of cells at G0/G1 phase at 0.125 umol/L after 72 hrs by propidium iodide staining-based flow cytometric analysis (reference value: 80.65%); type: functional
[2] = test system: MGC-803; assay: Antiproliferative activity against human MGC803 cells after 72 hrs by CCK-8 assay; type: functional, cell-based; conditions: for IC50: MGC-803, 72 h
[3] = test system: SMMC-7721; assay: Antiproliferative activity against human SMMC7721 cells after 72 hrs by CCK-8 assay; type: functional, cell-based; conditions: for IC50: SMMC-7721, 72 h
[4] = test system: SMMC-7721; assay: Induction of apoptosis in human SMMC7721 cells assessed as viable cells at 4 umol/L after 72 hrs by Alexa Fluor 488 Annexin/propidium iodide staining-based flow cytometric analysis (reference value: 97.14%); type: functional; conditions: SMMC-7721, 72 h, read-out: Activity
[5] = test system: SMMC-7721; assay: Induction of apoptosis in human SMMC7721 cells assessed as necrotic cells at 1 umol/L after 72 hrs by Alexa Fluor 488 Annexin/propidium iodide staining-based flow cytometric analysis (reference value: 2.48%); type: functional
[6] = test system: MGC-803; assay: Antiproliferative activity against human MGC803 cells at 8 uM after 72 hrs by CCK-8 assay relative to control; type: functional; conditions: MGC-803, 72 h
[7] = test system: HeLa; assay: Antiproliferative activity against human HeLa cells at 2 uM after 72 hrs by CCK-8 assay relative to control; type: functional
[8] = test system: SMMC-7721; assay: Cell cycle arrest in human SMMC7721 cells assessed as accumulation of cells at G0/G1 phase at 1 umol/L after 72 hrs by propidium iodide staining-based flow cytometric analysis (reference value: 80.65%); type: functional
[9] = test system: NCI-H1299; assay: Antiproliferative activity against human NCI-H1299 cells after 72 hrs by CCK-8 assay; type: functional, cell-based; conditions: for IC50: NCI-H1299, 72 h
[10] = biological target: T1, Protein deacetylase HDAC6 (Homo sapiens, UniProt Q9UBN7); assay: Inhibition of human recombinant HDAC6 using Fluor de Lys-Green as substrate preincubated for 5 mins followed by substrate addition and measured after 1 hr by fluorescence assay
T1 sequence (Q9UBN7 whole entry): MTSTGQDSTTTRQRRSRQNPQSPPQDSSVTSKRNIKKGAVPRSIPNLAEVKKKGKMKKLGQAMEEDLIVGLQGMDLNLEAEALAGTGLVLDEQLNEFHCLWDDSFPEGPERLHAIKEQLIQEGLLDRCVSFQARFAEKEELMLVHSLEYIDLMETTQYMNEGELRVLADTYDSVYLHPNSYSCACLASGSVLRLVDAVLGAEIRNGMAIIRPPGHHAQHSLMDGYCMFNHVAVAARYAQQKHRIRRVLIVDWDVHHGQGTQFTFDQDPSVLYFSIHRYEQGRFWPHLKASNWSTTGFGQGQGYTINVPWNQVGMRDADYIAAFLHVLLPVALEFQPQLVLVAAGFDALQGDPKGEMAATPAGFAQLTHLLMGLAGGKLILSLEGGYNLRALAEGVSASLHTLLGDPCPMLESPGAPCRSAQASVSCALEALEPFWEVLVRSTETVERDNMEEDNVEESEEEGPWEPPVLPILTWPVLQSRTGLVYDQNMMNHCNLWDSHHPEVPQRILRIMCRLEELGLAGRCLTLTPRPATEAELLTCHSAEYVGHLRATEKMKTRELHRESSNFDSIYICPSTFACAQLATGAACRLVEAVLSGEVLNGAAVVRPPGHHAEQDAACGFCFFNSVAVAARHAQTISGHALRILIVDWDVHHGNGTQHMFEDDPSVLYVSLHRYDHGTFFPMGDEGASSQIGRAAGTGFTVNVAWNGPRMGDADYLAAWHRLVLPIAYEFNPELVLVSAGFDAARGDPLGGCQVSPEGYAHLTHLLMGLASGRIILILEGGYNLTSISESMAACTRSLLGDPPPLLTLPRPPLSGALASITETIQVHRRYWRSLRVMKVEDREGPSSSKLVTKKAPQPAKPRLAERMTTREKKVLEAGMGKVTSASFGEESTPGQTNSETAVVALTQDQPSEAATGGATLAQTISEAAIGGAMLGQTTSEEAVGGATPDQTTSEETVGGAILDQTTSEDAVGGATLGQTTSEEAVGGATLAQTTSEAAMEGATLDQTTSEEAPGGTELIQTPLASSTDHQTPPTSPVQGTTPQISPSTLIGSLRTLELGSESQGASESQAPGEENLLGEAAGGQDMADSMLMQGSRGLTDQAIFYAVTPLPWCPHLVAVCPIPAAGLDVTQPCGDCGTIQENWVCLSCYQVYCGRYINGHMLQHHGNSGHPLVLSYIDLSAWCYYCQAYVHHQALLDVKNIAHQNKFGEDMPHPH

[11] = biological target: Histone deacetylase 1 (Homo sapiens, UniProt Q13547); assay: Inhibition of human recombinant HDAC1 using Fluor de Lys-Green as substrate preincubated for 5 mins followed by substrate addition and measured after 1 hr by fluorescence assay
[12] = test system: SMMC-7721; assay: Cell cycle arrest in human SMMC7721 cells assessed as accumulation of cells at G0/G1 phase at 4 umol/L after 72 hrs by propidium iodide staining-based flow cytometric analysis (reference value: 80.65%); type: functional
[13] = test system: SMMC-7721; assay: Induction of apoptosis in human SMMC7721 cells assessed as viable cells at 1 umol/L after 72 hrs by Alexa Fluor 488 Annexin/propidium iodide staining-based flow cytometric analysis (reference value: 97.14%); type: functional; conditions: SMMC-7721, 72 h, read-out: Activity
[14] = test system: A-375; assay: Antiproliferative activity against human A375 cells at 2 uM after 72 hrs by CCK-8 assay relative to control; type: functional; conditions: A-375, 72 h
[15] = test system: SMMC-7721; assay: Induction of apoptosis in human SMMC7721 cells assessed as late apoptotic cells at 0.125 umol/L after 72 hrs by Alexa Fluor 488 Annexin/propidium iodide staining-based flow cytometric analysis (reference value: 0.29%); type: functional
[16] = test system: SMMC-7721; assay: Cell cycle arrest in human SMMC7721 cells assessed as accumulation of cells at S phase at 0.125 umol/L after 72 hrs by propidium iodide staining-based flow cytometric analysis (reference value: 5.21%); type: functional
[17] = test system: SMMC-7721; assay: Induction of apoptosis in human SMMC7721 cells assessed as necrotic cells at 0.125 umol/L after 72 hrs by Alexa Fluor 488 Annexin/propidium iodide staining-based flow cytometric analysis (reference value: 2.48%); type: functional
[18] = test system: A-375; assay: Antiproliferative activity against human A375 cells at 8 uM after 72 hrs by CCK-8 assay relative to control; type: functional; conditions: A-375, 72 h
[19] = test system: HCT-116; assay: Antiproliferative activity against human HCT116 cells after 72 hrs by CCK-8 assay; type: functional, cell-based; conditions: for IC50: HCT-116, 72 h
[20] = test system: SMMC-7721; assay: Induction of apoptosis in human SMMC7721 cells assessed as late apoptotic cells at 4 umol/L after 72 hrs by Alexa Fluor 488 Annexin/propidium iodide staining-based flow cytometric analysis (reference value: 0.29%); type: functional
[21] = test system: SMMC-7721; assay: Induction of apoptosis in human SMMC7721 cells assessed as necrotic cells at 4 umol/L after 72 hrs by Alexa Fluor 488 Annexin/propidium iodide staining-based flow cytometric analysis (reference value: 2.48%); type: functional
[22] = test system: SMMC-7721; assay: Induction of apoptosis in human SMMC7721 cells assessed as early apoptotic cells at 1 umol/L after 72 hrs by Alexa Fluor 488 Annexin/propidium iodide staining-based flow cytometric analysis (reference value: 0.09%); type: functional

Histone deacetylase 1, sequence (Q13547 whole entry): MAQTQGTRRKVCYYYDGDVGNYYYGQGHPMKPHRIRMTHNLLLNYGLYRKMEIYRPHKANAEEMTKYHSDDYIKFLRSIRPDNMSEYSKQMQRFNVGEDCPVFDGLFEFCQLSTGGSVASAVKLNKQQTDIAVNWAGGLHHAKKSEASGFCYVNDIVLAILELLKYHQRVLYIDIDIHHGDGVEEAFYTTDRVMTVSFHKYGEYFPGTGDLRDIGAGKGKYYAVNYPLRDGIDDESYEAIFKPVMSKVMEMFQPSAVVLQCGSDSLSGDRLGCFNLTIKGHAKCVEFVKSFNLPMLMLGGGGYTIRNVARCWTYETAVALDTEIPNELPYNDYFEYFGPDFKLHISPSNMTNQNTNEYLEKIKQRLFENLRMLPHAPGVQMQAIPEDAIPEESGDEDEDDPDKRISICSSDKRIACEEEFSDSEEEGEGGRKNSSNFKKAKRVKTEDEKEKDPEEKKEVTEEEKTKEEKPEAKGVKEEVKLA

| SMILES | Activity [1] | Activity ([1]; record 2) [%] | IC50 [2] [nM] | IC50 [3] [nM] | viability at 4 µM [4] [%] | Activity [5] [%] | inhibition at 8 µM [6] [%] | inhibition at 2 µM [7] [%] | Activity [8] [%] | IC50 [9] [nM] | IC50 [10] [nM] | IC50 [11] [nM] | Activity [12] [%] | viability at 1 µM [13] [%] | inhibition at 2 µM [14] [%] | Activity [15] [%] | Activity [16] [%] | Activity [17] [%] | inhibition at 8 µM [18] [%] | IC50 [19] [nM] | further results |
| --- | --- | --- | --- | --- | --- | --- | --- | --- | --- | --- | --- | --- | --- | --- | --- | --- | --- | --- | --- | --- | --- |
| Nc1ccccc1NC(=O)c1ccc(CSC(=S)N2CCN(c3ccncc3)CC2)cc1 | Dose-dependent effect | 80.71 | 1580 | 1340 | 24.3 | 5.01 | 87.1 | 77 | 79.27 | 2490 | > 40000 | 480 | 85.19 | 66.7 | 85.7 | 12.55 | 7.28 | 11.27 | 90.7 | 540 | Activity [2]: Dose-dependent effect; Activity [3]: Dose-dependent effect; Activity [9]: Dose-dependent effect; Activity [19]: Dose-dependent effect; Activity [20]: 52.78%; Activity [21]: 3.17%; Activity [22]: 17.23% |
| CCN(Cc1ccncc1)C(=S)SCc1ccc(C(=O)Nc2ccccc2N)cc1 | Dose-dependent effect | 81.27 | 1370 | 1210 | 43 | 13.18 | 85.2 | 63.5 | 71.44 | 750 | > 40000 | 1380 | 41.87 | 54.7 | 67.2 | 11.22 | 6.81 | 12.93 | 86.2 | 750 | Activity [20]: 31.88%; Activity [21]: 1.27%; Activity [22]: 18.06% |
| Nc1ccccc1NC(=O)c1ccc(CSC(=S)N2CCc3ccccc3C2)cc1 | Dose-dependent effect | 78.41 | 940 | 1200 | 46 | 2.9 | 87.5 | 54.4 | 67.59 | 980 | > 40000 | 2570 | 64.06 | 57.3 | 55.5 | 10.62 | 5.7 | 3.49 | 86.7 | 1560 | Activity [20]: 26.7%; Activity [21]: 1.94%; Activity [22]: 27.39% |
